Measured values from ChEMBL document CHEMBL1201862, “PubChem BioAssay data set” (2004).
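Results reflect a 48-hour exposure of cells in 96-well plates to compound at five concentrations. Abbreviation: GI50, concentration required for 50% inhibition of growth.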 Activity calls are given as the source filed them. Cut-off read from the data, not from the text of the source: active = GI50 up to about 1.1 µM and inactive = higher.

Legend:
Experiment in all cases: DTP human tumour cell line panel, 48 h
NCI/ADR-RES = tested on: NCI/ADR-RES
OVCAR-5 = tested on: OVCAR-5
T47D = tested on: T47D
BT-549 = tested on: BT-549
NCI-H23 = tested on: NCI-H23
HCT-116 = tested on: HCT-116
SNB-75 = tested on: SNB-75
SK-MEL-28 = tested on: SK-MEL-28
RXF 393 = tested on: RXF 393
UO-31 = tested on: UO-31
MDA-MB-435 = tested on: MDA-MB-435
NCI-H522 = tested on: NCI-H522
NCI-H226 = tested on: NCI-H226
OVCAR-8 = tested on: OVCAR-8
MOLT-4 = tested on: MOLT-4
SR = tested on: SR
SK-OV-3 = tested on: SK-OV-3
CCRF-CEM = tested on: CCRF-CEM
Malme-3M = tested on: Malme-3M
A549 = tested on: A549
MCF7 = tested on: MCF7
ACHN = tested on: ACHN
EKVX = tested on: EKVX
786-0 = tested on: 786-0
NCI-H460 = tested on: NCI-H460
SF-295 = tested on: SF-295
RPMI-8226 = tested on: RPMI-8226
HT-29 = tested on: HT-29
DU-145 = tested on: DU-145
HCC 2998 = tested on: HCC 2998
SK-MEL-5 = tested on: SK-MEL-5
SK-MEL-2 = tested on: SK-MEL-2
Hs-578T = tested on: Hs-578T
SF-539 = tested on: SF-539
OVCAR-3 = tested on: OVCAR-3
SNB-19 = tested on: SNB-19
HOP-62 = tested on: HOP-62
A498 = tested on: A498
LOX IMVI = tested on: LOX IMVI
HL-60 = tested on: HL-60
SN12C = tested on: SN12C
OVCAR-4 = tested on: OVCAR-4
UACC-257 = tested on: UACC-257
SW-620 = tested on: SW-620
U-251 = tested on: U-251
HCT-15 = tested on: HCT-15
TK-10 = tested on: TK-10
UACC-62 = tested on: UACC-62
CAKI-1 = tested on: CAKI-1
MDA-N = tested on: MDA-N
IGROV-1 = tested on: IGROV-1
COLO 205 = tested on: COLO 205
PC-3 = tested on: PC-3
KM12 = tested on: KM12
HOP-92 = tested on: HOP-92
M14 = tested on: M14
K562 = tested on: K562
MDA-MB-231 = tested on: MDA-MB-231
SF-268 = tested on: SF-268

For `Clc1cccc(N/N=N/c2ccc(-c3nc4ccccc4s3)cc2)c1`, the GI50 (NCI/ADR-RES) was 27.9 µM (inactive), the GI50 (OVCAR-5) was > 100 µM (inactive) and the GI50 (T47D) was 47.9 µM (inactive). For the same molecule, the GI50 (BT-549) was 51.2 µM (inactive), the GI50 (NCI-H23) was 24.5 µM (inactive) and the GI50 (HCT-116) was 32.7 µM (inactive). The GI50 (SNB-75) was 30.3 µM (inactive), the GI50 (SK-MEL-28) was 42.8 µM (inactive) and the GI50 (RXF 393) was 27.2 µM (inactive). The GI50 (UO-31) was > 100 µM (inactive), the GI50 (MDA-MB-435) was 30.6 µM (inactive) and the GI50 (NCI-H522) was 24.2 µM (inactive). For the same molecule, the GI50 (NCI-H226) was 94.8 µM (inactive), the GI50 (OVCAR-8) was 22.4 µM (inactive) and the GI50 (MOLT-4) was 18.4 µM (inactive). The GI50 (SR) was 20.9 µM (inactive), the GI50 (SK-OV-3) was 42.3 µM (inactive) and the GI50 (CCRF-CEM) was 21 µM (inactive). The GI50 (Malme-3M) was 26.6 µM (inactive), the GI50 (A549) was 82.4 µM (inactive) and the GI50 (MCF7) was 47.5 µM (inactive). For the same molecule, the GI50 (ACHN) was > 100 µM (inactive), the GI50 (EKVX) was > 100 µM (inactive) and the GI50 (786-0) was 22.2 µM (inactive). For the same molecule, the GI50 (NCI-H460) was 50.9 µM (inactive), the GI50 (SF-295) was > 100 µM (inactive) and the GI50 (RPMI-8226) was 58.7 µM (inactive). The GI50 (HT-29) was > 100 µM (inactive), the GI50 (DU-145) was > 100 µM (inactive) and the GI50 (HCC 2998) was 64.4 µM (inactive). For the same molecule, the GI50 (SK-MEL-5) was 25.4 µM (inactive), the GI50 (SK-MEL-2) was 21.2 µM (inactive) and the GI50 (Hs-578T) was > 100 µM (inactive). For the same molecule, the GI50 (SF-539) was 82.8 µM (inactive), the GI50 (OVCAR-3) was 51.5 µM (inactive) and the GI50 (SNB-19) was 86.1 µM (inactive). For the same molecule, the GI50 (HOP-62) was > 100 µM (inactive), the GI50 (A498) was > 100 µM (inactive) and the GI50 (LOX IMVI) was 53 µM (inactive). For the same molecule, the GI50 (HL-60) was 6.34 µM (inactive), the GI50 (SN12C) was 21.9 µM (inactive) and the GI50 (OVCAR-4) was 46.9 µM (inactive). The GI50 (UACC-257) was > 100 µM (inactive), the GI50 (SW-620) was 33.7 µM (inactive) and the GI50 (U-251) was 36.9 µM (inactive). The GI50 (HCT-15) was 32.4 µM, the GI50 (TK-10) was 94.6 µM (inactive) and the GI50 (UACC-62) was 25.2 µM (inactive). The GI50 (CAKI-1) was 53.8 µM (inactive), the GI50 (MDA-N) was 26.4 µM (inactive) and the GI50 (IGROV-1) was 21.4 µM (inactive). For the same molecule, the GI50 (COLO 205) was > 100 µM (inactive), the GI50 (PC-3) was 41.6 µM (inactive) and the GI50 (KM12) was > 100 µM (inactive). For the same molecule, the GI50 (HOP-92) was 20.4 µM (inactive), the GI50 (M14) was 34.8 µM (inactive) and the GI50 (K562) was 28.6 µM (inactive).

`C[C@@H]1S[C@H](c2c(Cl)cccc2Cl)N2Cc3ccccc3N=C12` was tested, and the GI50 (OVCAR-5) was > 100 µM (inactive), the GI50 (T47D) was > 100 µM (inactive) and the GI50 (BT-549) was > 100 µM (inactive). The GI50 (NCI-H23) was > 100 µM (inactive), the GI50 (HCT-116) was 11.5 µM (inactive) and the GI50 (SNB-75) was > 100 µM (inactive). The GI50 (SK-MEL-28) was > 100 µM (inactive), the GI50 (RXF 393) was > 100 µM (inactive) and the GI50 (UO-31) was > 100 µM (inactive). For the same molecule, the GI50 (MDA-MB-435) was > 100 µM (inactive), the GI50 (MDA-MB-231) was > 100 µM (inactive) and the GI50 (MOLT-4) was > 100 µM (inactive). The GI50 (SR) was > 100 µM (inactive), the GI50 (SK-OV-3) was > 100 µM (inactive) and the GI50 (CCRF-CEM) was > 100 µM (inactive). The GI50 (A549) was > 100 µM (inactive), the GI50 (MCF7) was > 100 µM (inactive) and the GI50 (ACHN) was > 100 µM (inactive). For the same molecule, the GI50 (EKVX) was 42.9 µM (inactive), the GI50 (786-0) was > 100 µM (inactive) and the GI50 (NCI-H460) was > 100 µM (inactive). The GI50 (SF-295) was > 100 µM (inactive), the GI50 (RPMI-8226) was > 100 µM (inactive) and the GI50 (DU-145) was > 100 µM (inactive). For the same molecule, the GI50 (HCC 2998) was > 100 µM (inactive), the GI50 (SK-MEL-5) was > 100 µM (inactive) and the GI50 (SK-MEL-2) was > 100 µM (inactive). For the same molecule, the GI50 (Hs-578T) was > 100 µM (inactive), the GI50 (SF-539) was > 100 µM (inactive) and the GI50 (OVCAR-3) was > 100 µM (inactive). For the same molecule, the GI50 (SNB-19) was > 100 µM (inactive), the GI50 (HOP-62) was > 100 µM (inactive) and the GI50 (A498) was > 100 µM (inactive). The GI50 (LOX IMVI) was > 100 µM (inactive), the GI50 (HL-60) was 48.4 µM (inactive) and the GI50 (SN12C) was > 100 µM (inactive). For the same molecule, the GI50 (OVCAR-4) was > 100 µM (inactive), the GI50 (UACC-257) was > 100 µM (inactive) and the GI50 (SW-620) was > 100 µM (inactive). The GI50 (SF-268) was > 100 µM (inactive), the GI50 (U-251) was > 100 µM (inactive) and the GI50 (HCT-15) was > 100 µM. For the same molecule, the GI50 (TK-10) was > 100 µM (inactive), the GI50 (UACC-62) was 97.3 µM (inactive) and the GI50 (CAKI-1) was > 100 µM (inactive). For the same molecule, the GI50 (MDA-N) was > 100 µM (inactive), the GI50 (IGROV-1) was > 100 µM (inactive) and the GI50 (COLO 205) was > 100 µM (inactive). For the same molecule, the GI50 (PC-3) was > 100 µM (inactive), the GI50 (KM12) was 85.5 µM (inactive) and the GI50 (HOP-92) was > 100 µM (inactive). The GI50 (M14) was > 100 µM (inactive) and the GI50 (K562) was > 100 µM (inactive).
